{"source": "patent US11253566B2", "about": "“Composition for ameliorating, or treating depression and anxiety disorder comprising Fraxinus rhynchophylla extract as effective ingredient” (priority 2017, dated 2022)", "key": {"[1]": {"system": "C57BL/6 mouse with induced depression and anxiety disorder", "assay": "Open field test (OFT)", "assay_type": "in vivo", "conditions": "150 mg/kg doxepin for 14 days, test on Day 15, vs control group", "experimental": "(§1) Fraxinus rhynchophylla extract was dissolved in physiological saline to have a concentration of 100 mg/kg for each, and then aliquoted. One hour before applying the stress for 14 days, the sample was administered via an oral route.\n(§2) A 7-week old male C57BL/6 mouse was acclimated for 1 week, and then exposed to a stress everyday between 10:00 to 14:00 o'clock. Specifically, 1 hour after the oral administration of a sample, an electric shock with strength of 0.5 mA was applied to the foot sole of the mouse for 1 sec with an interval of 10 seconds, for 2 minutes in total, by using a shuttle box (JD-SI-10, JEUNG DO BIO & PLANT CO, LTD, Seoul, S. Korea). […]\nOpen field test is to determine the degree of anxiety, which is one symptom of depression, by measuring the voluntary movement of a mouse after entering an unfamiliar field for the first time. At the center (15 cm×15 cm) of an open box with a dimension of 30 cm×30 cm×30 cm, which is made of white acryl, a C57BL/6 mouse which has been induced to have depression and anxiety disorder was placed, and then total travel distance and frequency of center entry for 10 minutes were measured. For the measurement, after recording using a video camera, the overall movement of the C57BL/6 mouse was analyzed by using Video tracking software (SMART 3.0, Panlab, Spain). […]"}, "pCREB": {"system": "pCREB", "assay": "Expression ratio of pCREB protein in hippocampal tissues (Western blot)", "assay_type": "in vivo, mouse", "conditions": "150 mg/kg doxepin for 14 days, tissues on Day 17, vs control group"}, "serotonin": {"system": "serotonin", "assay": "Serotonin level in blood serum (ELISA)", "assay_type": "in vivo, mouse", "conditions": "150 mg/kg doxepin for 14 days, blood on Day 17, vs control group", "experimental": "as §1\n(§3) A 7-week old male C57BL/6 mouse was acclimated for 1 week, and then exposed to a stress everyday between 10:00 to 14:00 o'clock. Specifically, 1 hour after the oral administration of a sample, an electric shock with strength of 0.5 mA was applied to the foot sole of the mouse for 1 sec with an interval of 10 seconds, for 2 minutes in total, by using a shuttle box (JD-SI-10, JEUNG DO BIO & PLANT CO, LTD, Seoul, S. Korea). After applying the electric shock, the mouse was put to a hemicylindrical restraining device (JD-R 05A, JEUNG DO BIO & PLANT CO, LTD, Seoul, S. Korea) made of 30 mm-thick acryl, one animal in each device, and then restrained in the immobile state for 2 hours.\n(§4) In addition, for the control group, the 12-hour day and night cycle was maintained, but light illumination was applied to the test group for 24 hours to disrupt the regular living pattern, and thus a sleep-interfering environment was created (FIG. 5).\nThe serotonin level in blood serum separated from each test animal was measured. […] Upon the completion of the reaction, absorbance at a wavelength of 405 nm was measured by using a microplate reader."}, "[2]": {"system": "C57BL/6 mouse with induced depression and anxiety disorder", "assay": "Forced swim test (FST)", "assay_type": "in vivo", "conditions": "150 mg/kg doxepin for 14 days, test on Day 15, vs control group", "experimental": "as §1\nas §3, with “hours. […]” for “hours.”\nForced swim test is a test to determine despair among the symptoms of depression, and the immobility of a mouse was checked using a cylinder having a depth which prevents the animal from touching its paws or tail to the floor of the cylinder. […] Then, the immobility time during 4 minutes, i.e., excluding initial 2 minutes as adaptation period from the total 6 minutes, was measured."}, "cortisol": {"system": "cortisol", "assay": "Cortisol level in blood serum (ELISA)", "assay_type": "in vivo, mouse", "conditions": "150 mg/kg doxepin for 14 days, blood on Day 17, vs control group", "experimental": "as §1, §3, §4\nThe cortisol level in blood serum separated from each test animal was measured. […] Absorbance at 405 nm was then measured."}, "BDNF and mBDNF": {"system": "BDNF and mBDNF", "assay": "Expression of BDNF and mBDNF in hippocampal tissues (Western blot)", "assay_type": "in vivo, mouse", "conditions": "150 mg/kg doxepin for 14 days, tissues on Day 17, vs control group", "experimental": "as §1\nas §3, with “hours. […]” for “hours.”\nProtein expression pattern in brain hippocampal tissues which have been collected from each test animal was determined by Western blot analysis. […] After obtaining the protein amount in each sample, the protein was quantified to 1 μg/μl, and then the expression amount of protein was measured by using Mini PROTEAN TGX Gels."}, "[3]": {"assay": "Bodyweight change in mouse with induced depression and anxiety disorder", "assay_type": "in vivo", "conditions": "150 mg/kg doxepin, Day 7 or Day 14, vs control group", "experimental": "as §1, §2\nA change in body weight caused by administration of the ethanol extract of Fraxinus rhynchophylla of the present invention was determined in the animal model with induced depression and anxiety disorder. Specifically, the bodyweight of a mouse was measured, before the exposure to stress (Day 0), or on Day 7 or Day 14 after the exposure to stress for the normal group, the control group (i.e., group induced with depression and anxiety disorder), the test group (i.e., group administered with the ethanol extract of Fraxinus rhynchophylla of the present invention), and the positive control group (i.e., group administered with doxepin) (FIG. 6). […]"}}, "data": [{"smiles": "CN(C)CCC=C1c2ccccc2COc2ccccc21", "note": "[doxepin]", "values": [{"measurement": "number of center entry", "setting": "[1]", "value": "increased in statistically significant sense"}, {"measurement": "travel distance within the center zone", "setting": "[1]", "value": "increase in statistically significant sense"}, {"measurement": "expression ratio of pCREB protein (pCREB/CREB) in hippocampal tissues", "setting": "pCREB", "value": "increase in statistically significant sense"}, {"measurement": "serotonin hormone level in blood", "setting": "serotonin", "value": "increased in statistically significant sense"}, {"measurement": "immobility time", "setting": "[2]", "value": "decreased in statistically significant sense"}, {"measurement": "blood cortisol level", "setting": "cortisol", "value": "decreased in statistically significant sense"}, {"measurement": "relative expression amount of BDNF in hippocampal tissues", "setting": "BDNF and mBDNF", "value": "increase in statistically significant sense"}, {"measurement": "relative expression amount of mBDNF in hippocampal tissues", "setting": "BDNF and mBDNF", "value": "increase in statistically significant sense"}, {"measurement": "bodyweight (gain rate)", "setting": "[3]", "value": "increased in statistically significant sense"}]}]}
